Values of other authors, collected in patent US20190282540A1, “TARGETED DRUG DELIVERY” (NOXOPHARM LIMITED, priority 2016, published 2019).

Columns and labels:
[1] = in vivo, following dietary challenge
[2] = test system: wide range of cancer cell types; details: fold relative to genistein
[3] = [14C] idronoxil given orally, target dose 20 mg/kg

## O=c1c(-c2ccc(O)cc2)coc2cc(O)cc(O)c12 [genistein]
[1]
  brain-to-blood ratio: 0.04

## Oc1ccc(C2=Cc3ccc(O)cc3OC2)cc1 [Idronoxil, 2H-1-Benzopyran-7-0,1,3-(4-hydroxyphenyl)]
Intravenously administered, second-pass liver metabolism
  conjugation: completely conjugated
Orally administered, gut mucosa transferase activity and first-pass liver metabolism
  conversion into water-soluble conjugates: completely converted into water-soluble conjugates
[2]
  potency as an anti-cancer agent compared to genistein: about 10 ×
[3]
  levels of isotope in the brain and spinal cord: below the limit of reliable measurement
